The values that follow come from PMC5201133 (Journal of medicinal chemistry, 2016).

As usually defined, the Ki is a dissociation constant, usually derived from enzyme kinetics or from competition with a known ligand. For orientation: Papp B→A means how fast a substance crosses the layer from the basolateral side. The Papp A→B is how fast a substance crosses the layer from the apical side. Read a low Papp A→B as poor permeation. As a reminder, the fraction remaining is what is left of the initial amount, in per cent. Lower therefore signals a greater loss. In general, CC50 refers to the concentration that lowers cell viability or growth by half. Higher therefore signals lower toxicity to the cells. Broadly, the IC50 is the concentration needed to halve the response being measured. A lower IC50 goes with higher potency. Broadly, the inhibition is the relative decrease from the control value, in per cent.

One series concerns the target A2AAR. The conditions noted are these: rat (r), archival data ref 22, 24–27, cited from earlier work.
Series [1] concerns the target A1AR. The settings on record: read-out: A1AR Ki; rat (r); archival data ref 22, 24–27; cited from earlier work.
The target in series [2] is A3AR. The settings on record: read-out: A3AR Ki; rat (r); archival data ref 22, 24–27; cited from earlier work.
Series [3] deals with T1, A3AR (Homo sapiens, UniProt P0DMS8).
T1 sequence (P0DMS8 1-318): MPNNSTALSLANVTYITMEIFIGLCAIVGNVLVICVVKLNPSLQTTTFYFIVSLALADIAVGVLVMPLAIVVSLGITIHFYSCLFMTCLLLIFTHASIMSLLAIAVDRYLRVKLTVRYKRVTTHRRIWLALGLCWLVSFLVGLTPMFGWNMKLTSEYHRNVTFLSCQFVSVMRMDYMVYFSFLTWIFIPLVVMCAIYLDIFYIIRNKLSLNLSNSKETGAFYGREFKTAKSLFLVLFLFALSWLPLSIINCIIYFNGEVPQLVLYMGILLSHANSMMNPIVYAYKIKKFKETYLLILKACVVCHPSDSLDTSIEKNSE
The settings on record: read-out: A3AR Ki, archival data ref 22, 24–27; cited from earlier work.

Series [4] deals with T2, 5HT2AR (Homo sapiens, UniProt P28223). Nature of the series: 5HT2AR functional calcium mobilization assay. It counts as cell-based. The conditions noted are these: 10 µM; result in words. For orientation: A change in cytosolic calcium serves as a functional read-out for many receptors and channels.
Series [5] concerns the target T3, 5HT2CR (Homo sapiens, UniProt P28335).
T3 sequence (P28335 33-458): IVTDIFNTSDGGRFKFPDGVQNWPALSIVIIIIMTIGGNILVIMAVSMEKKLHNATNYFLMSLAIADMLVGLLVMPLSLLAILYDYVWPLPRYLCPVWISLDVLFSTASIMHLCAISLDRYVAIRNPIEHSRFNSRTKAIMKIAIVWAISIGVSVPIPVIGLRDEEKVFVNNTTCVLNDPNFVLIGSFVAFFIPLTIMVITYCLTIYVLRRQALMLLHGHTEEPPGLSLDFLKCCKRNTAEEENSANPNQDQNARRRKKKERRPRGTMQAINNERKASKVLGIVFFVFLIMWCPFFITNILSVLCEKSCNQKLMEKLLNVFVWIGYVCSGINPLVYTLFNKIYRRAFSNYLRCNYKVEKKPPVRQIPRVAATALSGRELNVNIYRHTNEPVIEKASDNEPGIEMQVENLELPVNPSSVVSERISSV
Nature of the series: 5HT2CR functional calcium mobilization assay. Format: cell-based. The settings on record: 10 µM; result in words.

A further series is described as follows: CACO cell permeability. It counts as in vitro ADME. The conditions noted are these: human.
Series [6] in a line: Stability in human plasma. Format: in vitro ADME. The settings on record: for remaining at 2 h: human, plasma, Stability in plasma, % remaining at 120 min.
Series [7] is described as follows: Cytotoxicity in HepG2 cells. The conditions noted are these: human. Format: cell-based.
Series [8] deals with 5 CYP isozymes (A2, 2C9, 2C19, 2D6, 3A4). Nature of the series: Inhibition of 5 CYP isozymes. Format: in vitro ADME. The conditions noted are these: human.
Series [9] concerns the target T4, 5HT2BR (Homo sapiens, UniProt P41595). Format: cell-based.
The subject of another series is CACO-2 cells. Nature of the series: CACO cell permeability. It counts as in vitro ADME. The settings on record: CACO-2 cells.
Series [10] concerns the target T4, 5HT2BR. It counts as binding.
Series [11] addresses T1, A3AR. Nature of the series: A3AR binding, [125I]46.
A further series has as its target human 5HT5AR (Homo sapiens, UniProt P47898). Nature of the series: 5HT5AR binding. The conditions noted are these: result in words.
Series [12] addresses T3, 5HT2CR. Nature of the series: 5HT2CR radioligand binding, [3H]mesulergine 44, Flp IN HEK cell membranes. The settings on record: 5HT2CR Ki, mean ± SEM; ^d n = 1.
In series [13] the target is T5, A1AR (Homo sapiens, UniProt P30542).
T5 sequence (P30542 1-326): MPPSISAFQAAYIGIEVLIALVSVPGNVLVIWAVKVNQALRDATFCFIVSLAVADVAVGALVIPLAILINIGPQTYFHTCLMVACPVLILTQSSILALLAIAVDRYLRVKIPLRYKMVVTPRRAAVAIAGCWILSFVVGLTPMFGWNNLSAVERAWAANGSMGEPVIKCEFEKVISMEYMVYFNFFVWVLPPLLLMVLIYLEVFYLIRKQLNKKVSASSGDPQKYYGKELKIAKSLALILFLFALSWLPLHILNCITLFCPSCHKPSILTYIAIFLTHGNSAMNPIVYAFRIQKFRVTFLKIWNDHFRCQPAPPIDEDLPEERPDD
Nature of the series: A1AR binding, [3H]N6-phenylisopropyladenosine 45.

Series [14] has as its target T2, 5HT2AR. Nature of the series: 5HT2AR radioligand binding, [3H]ketanserin, HEKT cell membranes. The settings on record: read-out: 5HT2AR % inhibition.
The target of another series is hA2AAR (Homo sapiens, UniProt P29274). Nature of the series: A2AAR binding, [3H]47, HEK293 cell membranes. The conditions noted are these: read-out: A2AAR % inhibition.
Series [15] concerns the target T2, 5HT2AR. The conditions noted are these: inhibition of binding at 10 µM; archival data ref 9, 22, 24–27; cited from earlier work.
Series [16] deals with T3, 5HT2CR. The conditions noted are these: read-out: 5HT2CR Ki; archival data ref 8, 9, 22, 24–27; cited from earlier work.

Entries after “also recorded” stand apart in the source; their conditions may differ. Like-named read-outs stand apart in the source and are kept apart here. Marks after values point to notes of the source that are not given here.

T2 sequence (P28223 whole entry): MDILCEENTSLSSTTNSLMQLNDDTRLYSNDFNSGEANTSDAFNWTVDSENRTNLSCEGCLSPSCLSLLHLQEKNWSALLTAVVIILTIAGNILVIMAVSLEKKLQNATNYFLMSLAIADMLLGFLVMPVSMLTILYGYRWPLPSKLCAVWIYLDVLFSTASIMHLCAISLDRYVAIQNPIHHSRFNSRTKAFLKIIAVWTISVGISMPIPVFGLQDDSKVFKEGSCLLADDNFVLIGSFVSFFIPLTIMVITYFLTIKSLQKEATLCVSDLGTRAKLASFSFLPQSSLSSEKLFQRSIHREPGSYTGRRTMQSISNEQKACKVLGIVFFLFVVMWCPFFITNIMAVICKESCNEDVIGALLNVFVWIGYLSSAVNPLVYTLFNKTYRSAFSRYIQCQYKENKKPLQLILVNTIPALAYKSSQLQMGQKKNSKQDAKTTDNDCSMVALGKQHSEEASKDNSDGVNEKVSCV
T4 sequence (P41595 whole entry): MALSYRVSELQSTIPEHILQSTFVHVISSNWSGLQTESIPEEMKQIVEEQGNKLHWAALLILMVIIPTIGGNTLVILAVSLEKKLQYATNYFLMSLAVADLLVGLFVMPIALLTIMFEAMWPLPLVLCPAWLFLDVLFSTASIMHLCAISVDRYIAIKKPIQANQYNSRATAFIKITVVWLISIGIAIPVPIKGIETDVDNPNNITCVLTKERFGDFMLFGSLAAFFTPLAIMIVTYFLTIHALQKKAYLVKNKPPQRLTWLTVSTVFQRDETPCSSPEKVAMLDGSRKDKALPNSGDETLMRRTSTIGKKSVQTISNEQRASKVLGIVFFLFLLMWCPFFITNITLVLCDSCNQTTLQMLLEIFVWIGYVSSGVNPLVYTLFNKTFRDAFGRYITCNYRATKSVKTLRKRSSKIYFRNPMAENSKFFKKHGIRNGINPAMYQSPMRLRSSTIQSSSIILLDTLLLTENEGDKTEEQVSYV
Sequence of hA2AAR (P29274 whole entry): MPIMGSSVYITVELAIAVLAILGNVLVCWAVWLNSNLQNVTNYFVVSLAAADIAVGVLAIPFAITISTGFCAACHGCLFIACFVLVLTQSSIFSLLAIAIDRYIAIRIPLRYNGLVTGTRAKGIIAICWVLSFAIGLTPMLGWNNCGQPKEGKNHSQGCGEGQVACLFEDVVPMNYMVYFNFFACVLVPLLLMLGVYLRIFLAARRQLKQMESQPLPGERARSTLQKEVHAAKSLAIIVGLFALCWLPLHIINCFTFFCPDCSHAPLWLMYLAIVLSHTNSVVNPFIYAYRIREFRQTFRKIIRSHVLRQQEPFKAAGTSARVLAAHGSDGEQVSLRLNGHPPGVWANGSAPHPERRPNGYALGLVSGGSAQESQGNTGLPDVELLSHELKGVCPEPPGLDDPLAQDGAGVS
Sequence of human 5HT5AR (P47898 whole entry): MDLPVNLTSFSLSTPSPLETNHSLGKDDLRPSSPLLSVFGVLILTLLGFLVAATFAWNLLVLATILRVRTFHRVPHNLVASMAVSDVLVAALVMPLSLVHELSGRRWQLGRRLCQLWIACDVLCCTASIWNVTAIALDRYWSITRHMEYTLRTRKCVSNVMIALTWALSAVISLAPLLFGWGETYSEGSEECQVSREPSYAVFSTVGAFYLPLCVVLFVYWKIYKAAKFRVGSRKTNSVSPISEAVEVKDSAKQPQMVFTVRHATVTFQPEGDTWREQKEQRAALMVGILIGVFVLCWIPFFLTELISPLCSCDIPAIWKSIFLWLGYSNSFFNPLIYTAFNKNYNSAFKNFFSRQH

Take `OC[C@H]1O[C@@H](n2cnc3c(NC(C4CC4)C4CC4)ncnc32)[C@H](O)[C@@H]1O` [compound 6]: the Ki on A2AAR (read-out: A2AAR Ki) is 1.37 µM.

For `CNC(=O)[C@H]1O[C@@H](n2cnc3c(N)ncnc32)[C@H](O)[C@@H]1O` [compound 7, reference compound], the Ki on A1AR [1] is 0.084 µM.

Consider `Nc1nc(Cl)nc2c1ncn2[C@H]1[C@H](O)[C@H](O)[C@]2(CO)C[C@H]12` [compound 12], for which the figures for the Ki on A3AR [2] and on A1AR [1] were 0.085 µM and 0.273 µM, respectively.

`CNc1nc(Cl)nc2c1ncn2[C@H]1[C@H](O)[C@H](O)[C@]2(CO)C[C@H]12` [compound 13]: the A2AAR % inhibition in the series on A2AAR (inhibition of binding at 10 µM) is on record as <10% (r) ^c. Also, the Ki on A3AR [3] was 0.023 µM; on A1AR [1], 1.47 µM.

`OC[C@@]12C[C@@H]1[C@@H](n1cnc3c(NC(C4CC4)C4CC4)nc(Cl)nc31)[C@H](O)[C@@H]2O` [compound 14, (1R,2R,3S,4R,5S)-4-(2-Chloro-6-((dicyclopropylmethyl)amino)-9H-purin-9-yl)-1-(hydroxymethyl)bicyclo[3.1.0]hexane-2,3-diol]: the “agonist or antagonist activity at 5HT2AR” value at 5HT2AR [4] was “no activity as agonist or antagonist”. Moreover, the “agonist activity at 5HT2CR” value at 5HT2CR [5] was “no appreciable agonist or partial agonist activity”.

In turn, `CNC(=O)[C@@]12C[C@@H]1[C@@H](n1cnc3c(NC(C4CC4)C4CC4)nc(Cl)nc31)[C@H](O)[C@@H]2O` [compound 23, (1S,2R,3S,4R,5S)-4-(2-Chloro-6-((dicyclopropylmethyl)amino)-9H-purin-9-yl)-2,3-dihydroxy-N-methylbicyclo[3.1.0]hexane-1-carboxamide] yielded a Papp B→A in “CACO cell permeability” (Caco-2) of 46.2 ×10⁻⁶ cm/s. Moreover, the Papp A→B in “CACO cell permeability” (Caco-2, Papp, A->B, CACO-2 cells) came out at 4.73 ×10⁻⁶ cm/s. Further, the “agonist or antagonist activity at 5HT2AR” value at 5HT2AR [4] is “no activity as agonist or antagonist”. In series [6], the “Stability in plasma, % remaining at 120 min, Human” value amounted to 104% and the share remaining at 2 h is around 100%. Moreover, the “agonist activity at 5HT2CR” value on 5HT2CR [5] is “no appreciable agonist or partial agonist activity”. Besides, the CC50 in series [7] was above 30 µM. Also, in series [8], the IC50 was above 30 µM. The “agonist activity at 5HT2BR” value at 5HT2BR [9] is “no appreciable agonist or partial agonist activity”.

With `COC(=O)[C@@]12C[C@@H]1[C@@H](n1cnc3c(NC(C4CC4)C4CC4)nc(Cl)nc31)[C@H](O)[C@@H]2O` [compound 25, Methyl (1S,2R,3S,4R,5S)-4-(2-Chloro-6-((dicyclopropylmethyl)amino)-9H-purin-9-yl)-2,3-dihydroxybicyclo[3.1.0]hexane-1-carboxylate], the “Papp, A->B” value in the series on CACO-2 cells is listed as 18.47 10^−6 cm/sec. Also, the “agonist or antagonist activity at 5HT2AR” value at 5HT2AR [4] was “no activity as agonist or antagonist”. In addition, in [6], the “Stability in plasma, % remaining at 120 min, Human” value worked out at 95.3% and the share remaining at 2 h was around 100%. Also, the “agonist activity at 5HT2CR” value on 5HT2CR [5] was “no appreciable agonist or partial agonist activity”. In series [7], the CC50 was above 30 µM. This compound also registered an IC50 in series [8] of at least 20 µM. On 5HT2BR [10], the “ligand efficiency (LE) in 5HT2BR binding” value came out at 0.37. On 5HT2BR [9] (10 µM, result in words), the “agonist activity at 5HT2BR” value is recorded as “no appreciable agonist or partial agonist activity”.

`CCOC(=O)[C@@]12C[C@@H]1[C@@H](n1cnc3c(NC(C4CC4)C4CC4)nc(Cl)nc31)[C@H](O)[C@@H]2O` [compound 26, Ethyl (1S,2R,3S,4R,5S)-4-(2-chloro-6-((dicyclopropylmethyl)amino)-9H-purin-9-yl)-2,3-dihydroxybicyclo[3.1.0]hexane-1-carboxylate]: the “agonist or antagonist activity at 5HT2AR” value on 5HT2AR [4] is reported as “did not display significant agonist or antagonist activity; also recorded: no activity as agonist or antagonist”. The “agonist activity at 5HT2CR” value at 5HT2CR [5] is recorded as “did not display significant; also recorded: no appreciable agonist or partial agonist activity”. Besides, the “agonist activity at 5HT2BR” value on 5HT2BR [9] is on record as “did not display significant; also recorded: no appreciable agonist or partial agonist activity”.

Consider `CCOC(=O)[C@@]12C[C@@H]1[C@@H](n1cnc3c(N(C)C)nc(Cl)nc31)[C@H](O)[C@@H]2O` [compound 29, Ethyl (1S,2R,3S,4R,5S)-4-(2-chloro-6-(dimethylamino)-9H-purin-9-yl)-2,3-dihydroxybicyclo[3.1.0]hexane-1-carboxylate], for which the “affinity at the A3AR” value on A3AR [11] (result in words) is listed as “no measurable affinity”.

For `CN(C)c1nc(Cl)nc2c1ncn2[C@H]1[C@H](O)[C@H](O)[C@]2(C(=O)O)C[C@H]12` [compound 30, (1S,2R,3S,4R,5S)-4-(2-Chloro-6-(dimethylamino)-9H-purin-9-yl)-2,3-dihydroxybicyclo [3.1.0]hexane-1-carboxylic acid], on human 5HT5AR, the “binding at the human 5HT5AR” value is reported as “bound weakly”.

`NCCNC(=O)[C@@]12C[C@@H]1[C@@H](n1cnc3c(NC(C4CC4)C4CC4)nc(Cl)nc31)[C@H](O)[C@@H]2O` [compound 31, (1S,2R,3S,4R,5S)-N-(2-Aminoethyl)-4-(2-chloro-6-((dicyclopropylmethyl)amino)-9H-purin-9-yl)-2,3-dihydroxybicyclo[3.1.0]hexane-1-carboxamide]: the Ki at 5HT2CR [12] worked out at 0.142 ± 0.001 µM; at A3AR [11], 8.11 ± 1.27 µM; at A1AR [13], 2.58 ± 1.22 µM; at 5HT2BR [10] it was 0.63 ± 0.146 µM. The inhibition at 10 µM on 5HT2AR [14] is below 10%; on hA2AAR, 23 ± 5%.

On to `NCCCNC(=O)[C@@]12C[C@@H]1[C@@H](n1cnc3c(NC(C4CC4)C4CC4)nc(Cl)nc31)[C@H](O)[C@@H]2O` [compound 32, (1S,2R,3S,4R,5S)-N-(3-Aminopropyl)-4-(2-chloro-6-((dicyclopropylmethyl)amino)-9H-purin-9-yl)-2,3-dihydroxybicyclo[3.1.0]hexane-1-carboxamide], for which the Ki was found to be 0.137 ± 0.019 µM at 5HT2CR [12] and 1.12 ± 0.31 µM at 5HT2BR [10]. Moreover, the inhibition at 10 µM on A3AR [11] (read-out: A3AR % inhibition) is 55 ± 1%; at A1AR [13] (read-out: A1AR % inhibition) it was 45 ± 4%; on 5HT2AR [14], below 10%; at hA2AAR, 26 ± 5%.

In the case of `CNC(=O)[C@@]12C[C@@H]1[C@@H](n1cnc3c(NCc4cccc(Cl)c4)nc(Cl)nc31)[C@H](O)[C@@H]2O` [compound 35], on 5HT2AR [15], the 5HT2AR % inhibition is 35%. Moreover, the Ki on 5HT2CR [16] was 0.168 ± 0.047 µM.

On to `CNC(=O)[C@@]12C[C@@H]1[C@@H](n1cnc3c(N(C)C)nc(C#Cc4ccc(Cl)s4)nc31)[C@H](O)[C@@H]2O` [compound 42], for which the “reduction of A3AR affinity” value on A3AR [11] (39 vs. 42) was 34 fold.
